Assay results as given in ChEMBL document CHEMBL1128314, “Absolute configuration of (+)-[fluoro(hydroxyphenylphosphinyl)methyl]-phosphonic acid, a specific inhibitor of Na(+)-gradient-dependent Na(+)-phosphate cotransport across renal brush border membrane, by X-ray crystallographic analysis of its (-)-quinine salt” (J Med Chem, 1995).

Species on record: Rattus norvegicus
Assay: The compound was tested for inhibition of Sodium-Phosphate co-transport in rat renal Brush border membrane
Format: functional

Ki: 360 µM
SMILES: O=P(O)(O)C(F)P(=O)(O)c1ccccc1 (stereo unspecified)
